Reference: BigSolDB 2.1

CC(=O)Nc1ccc(C(=O)O)cc1
Settings | solubility (mole fraction)
in 1,4-dioxane, 288.15 K | 0.00281
in 1,4-dioxane, 293.15 K | 0.00326
in 1,4-dioxane, 298.15 K | 0.00345
in 1,4-dioxane, 303.15 K | 0.00394
in 1,4-dioxane, 308.15 K | 0.00446
in 1,4-dioxane, 313.15 K | 0.00491
in 1,4-dioxane, 318.15 K | 0.00577
in 1,4-dioxane, 323.15 K | 0.00639
in 1,4-dioxane, 328.15 K | 0.00698
in acetic acid, 293.15 K | 0.00404
in acetic acid, 298.15 K | 0.00486
in acetic acid, 303.15 K | 0.00554
in acetic acid, 308.15 K | 0.00625
in acetic acid, 313.15 K | 0.007
in acetic acid, 318.15 K | 0.00782
in acetic acid, 323.15 K | 0.00894
in acetic acid, 328.15 K | 0.00963
in acetic acid, 333.15 K | 0.0111
in acetone, 283.15 K | 0.00302
in acetone, 288.15 K | 0.00338
in acetone, 293.15 K | 0.00384
in acetone, 298.15 K | 0.00454
in acetone, 303.15 K | 0.00538
in acetone, 308.15 K | 0.00635
in acetone, 313.15 K | 0.00709
in acetone, 318.15 K | 0.00804
in acetone, 323.15 K | 0.00913
in acetonitrile, 283.15 K | 0.000293
in acetonitrile, 288.15 K | 0.000405
in acetonitrile, 293.15 K | 0.000433
in acetonitrile, 298.15 K | 0.000515
in acetonitrile, 303.15 K | 0.000653
in acetonitrile, 308.15 K | 0.000803
in acetonitrile, 313.15 K | 0.000943
in acetonitrile, 318.15 K | 0.00107
in acetonitrile, 323.15 K | 0.00132
in ethanol, 283.15 K | 0.00586
in ethanol, 288.15 K | 0.00674
in ethanol, 293.15 K | 0.0075
in ethanol, 298.15 K | 0.00834
in ethanol, 303.15 K | 0.00921
in ethanol, 308.15 K | 0.0101
in ethanol, 313.15 K | 0.0114
in ethanol, 318.15 K | 0.0126
in ethanol, 323.15 K | 0.014
in isobutanol, 283.15 K | 0.00351
in isobutanol, 288.15 K | 0.00456
in isobutanol, 293.15 K | 0.00519
in isobutanol, 298.15 K | 0.00601
in isobutanol, 303.15 K | 0.00696
in isobutanol, 308.15 K | 0.00822
in isobutanol, 313.15 K | 0.00912
in isobutanol, 318.15 K | 0.0103
in isobutanol, 323.15 K | 0.0113
in isopropanol, 283.15 K | 0.00546
in isopropanol, 288.15 K | 0.00663
in isopropanol, 293.15 K | 0.00713
in isopropanol, 298.15 K | 0.00796
in isopropanol, 303.15 K | 0.009
in isopropanol, 308.15 K | 0.00986
in isopropanol, 313.15 K | 0.011
in isopropanol, 318.15 K | 0.012
in isopropanol, 323.15 K | 0.0137
in methanol, 283.15 K | 0.006
in methanol, 288.15 K | 0.00663
in methanol, 293.15 K | 0.00738
in methanol, 298.15 K | 0.00839
in methanol, 303.15 K | 0.00941
in methanol, 308.15 K | 0.0103
in methanol, 313.15 K | 0.0115
in methanol, 318.15 K | 0.0126
in methanol, 323.15 K | 0.0141
in n-butanol, 283.15 K | 0.00486
in n-butanol, 288.15 K | 0.00552
in n-butanol, 293.15 K | 0.00599
in n-butanol, 298.15 K | 0.00722
in n-butanol, 303.15 K | 0.00812
in n-butanol, 308.15 K | 0.00974
in n-butanol, 313.15 K | 0.0108
in n-butanol, 318.15 K | 0.0122
in n-butanol, 323.15 K | 0.0136
in n-pentanol, 283.15 K | 0.00507
in n-pentanol, 288.15 K | 0.00554
in n-pentanol, 293.15 K | 0.00607
in n-pentanol, 298.15 K | 0.00659
in n-pentanol, 303.15 K | 0.00741
in n-pentanol, 308.15 K | 0.00844
in n-pentanol, 313.15 K | 0.00938
in n-pentanol, 318.15 K | 0.0115
in n-pentanol, 323.15 K | 0.0138
in n-propanol, 283.15 K | 0.0048
in n-propanol, 288.15 K | 0.00548
in n-propanol, 293.15 K | 0.00608
in n-propanol, 298.15 K | 0.007
in n-propanol, 303.15 K | 0.00792
in n-propanol, 308.15 K | 0.00883
in n-propanol, 313.15 K | 0.00986
in n-propanol, 318.15 K | 0.0113
in n-propanol, 323.15 K | 0.0127
in sec-butanol, 283.15 K | 0.00515
in sec-butanol, 288.15 K | 0.00602
in sec-butanol, 293.15 K | 0.00666
in sec-butanol, 298.15 K | 0.00796
in sec-butanol, 303.15 K | 0.00936
in sec-butanol, 308.15 K | 0.0107
in sec-butanol, 313.15 K | 0.0122
in sec-butanol, 318.15 K | 0.0136
in sec-butanol, 323.15 K | 0.015
